This assay addresses T1, reaction center (RC) of the LH1–RC complex (Rhodopila globiformis, UniProt A0A2S6NEG7+A0A2S6NEP5).
T1 construct: gene CCS01_15140; native LH1-RC core complex purified from chromatophores (LDAO, then DDM); closed LH1 ring; with Reaction center protein H chain; Photosynthetic reaction center cytochrome c subunit
The experiment in a line: cryo-EM structure, […] Å. It counts as binding.

The values that follow come from PMC9640540, “An LH1–RC photocomplex from an extremophilic phototroph provides insight into origins of two photosynthesis proteins” (Communications Biology, 2022).

The structures appear in SMILES notation.

T1 sequence (A0A2S6NEG7 1-275): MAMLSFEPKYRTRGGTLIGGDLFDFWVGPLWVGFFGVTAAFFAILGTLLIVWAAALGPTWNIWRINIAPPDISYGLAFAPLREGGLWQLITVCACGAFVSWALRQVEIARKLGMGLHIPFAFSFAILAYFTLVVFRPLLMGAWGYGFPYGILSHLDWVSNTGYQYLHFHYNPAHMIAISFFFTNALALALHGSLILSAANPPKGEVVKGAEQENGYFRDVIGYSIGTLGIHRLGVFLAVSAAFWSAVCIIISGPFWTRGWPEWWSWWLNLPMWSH
T1 sequence (A0A2S6NEP5 1-326): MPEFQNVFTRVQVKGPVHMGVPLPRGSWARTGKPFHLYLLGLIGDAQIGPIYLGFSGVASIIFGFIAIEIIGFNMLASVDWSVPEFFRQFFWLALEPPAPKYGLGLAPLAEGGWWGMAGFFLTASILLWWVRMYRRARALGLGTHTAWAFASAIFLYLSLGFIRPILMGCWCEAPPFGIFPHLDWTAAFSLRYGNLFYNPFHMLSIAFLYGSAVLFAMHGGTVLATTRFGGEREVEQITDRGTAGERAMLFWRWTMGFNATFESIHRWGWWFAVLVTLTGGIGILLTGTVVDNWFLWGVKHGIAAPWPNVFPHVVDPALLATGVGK
T1 sequence (A0A2S6MZS1 1-258 partner): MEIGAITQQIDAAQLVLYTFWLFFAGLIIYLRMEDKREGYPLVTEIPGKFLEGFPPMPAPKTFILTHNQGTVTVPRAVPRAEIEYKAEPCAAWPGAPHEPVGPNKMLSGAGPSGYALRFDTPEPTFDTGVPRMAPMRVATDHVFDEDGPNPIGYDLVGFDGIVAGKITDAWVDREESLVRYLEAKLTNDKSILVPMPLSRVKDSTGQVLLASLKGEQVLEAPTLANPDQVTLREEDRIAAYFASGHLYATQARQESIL
T1 sequence (A0A2S6NEK5 1-344 partner): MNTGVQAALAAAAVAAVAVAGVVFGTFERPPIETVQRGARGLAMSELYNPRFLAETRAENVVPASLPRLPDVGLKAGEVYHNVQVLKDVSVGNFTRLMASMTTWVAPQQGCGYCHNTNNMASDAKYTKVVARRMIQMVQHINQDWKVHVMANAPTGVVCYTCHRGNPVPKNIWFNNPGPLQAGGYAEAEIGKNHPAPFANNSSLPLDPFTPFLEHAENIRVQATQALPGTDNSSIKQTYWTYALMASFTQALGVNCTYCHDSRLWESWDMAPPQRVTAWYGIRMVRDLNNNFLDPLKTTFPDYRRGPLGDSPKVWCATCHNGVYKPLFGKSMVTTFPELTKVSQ

Take `CC[C@H]1c2cc3[nH]c4c(c3C)C(=O)[C@H](C(=O)OC)c4c3nc(cc4[nH]c(cc(n2)[C@@H]1C)c(C(C)=O)c4C)[C@@H](C)[C@@H]3CCC(=O)OC/C=C(\C)CCC[C@H](C)CCC[C@H](C)CCCC(C)C` [BPhe a]: the “cryo-EM structure, 2.24 Å” value is “BPhe a, magenta sticks”.
